Assay results published in patent US9309276B2, “Synthetic lipid A derivative” (University of Georgia Research Foundation, Inc., priority 2007, dated 2016).
Where two headings read alike, the source gives them in different places.

How the values were obtained:
[1] = system: MM6 cells; assay: Cell viability of MM6 cells by trypan blue exclusion; type: cell-based, human; details: 5.5 h treatment
[2] = target: T1, human TLR2 (Homo sapiens, UniProt O60603); assay: NF-κB activation in HEK 293T cells stably transfected with human TLR2; type: cell-based; details: 103/104 at 0.1, 1 and 10 μg mL−1; Pam3CysSK4 1 μg mL−1; 4 h
T1 construct: host or cells: HEK 293T
T1 sequence (O60603 21-784): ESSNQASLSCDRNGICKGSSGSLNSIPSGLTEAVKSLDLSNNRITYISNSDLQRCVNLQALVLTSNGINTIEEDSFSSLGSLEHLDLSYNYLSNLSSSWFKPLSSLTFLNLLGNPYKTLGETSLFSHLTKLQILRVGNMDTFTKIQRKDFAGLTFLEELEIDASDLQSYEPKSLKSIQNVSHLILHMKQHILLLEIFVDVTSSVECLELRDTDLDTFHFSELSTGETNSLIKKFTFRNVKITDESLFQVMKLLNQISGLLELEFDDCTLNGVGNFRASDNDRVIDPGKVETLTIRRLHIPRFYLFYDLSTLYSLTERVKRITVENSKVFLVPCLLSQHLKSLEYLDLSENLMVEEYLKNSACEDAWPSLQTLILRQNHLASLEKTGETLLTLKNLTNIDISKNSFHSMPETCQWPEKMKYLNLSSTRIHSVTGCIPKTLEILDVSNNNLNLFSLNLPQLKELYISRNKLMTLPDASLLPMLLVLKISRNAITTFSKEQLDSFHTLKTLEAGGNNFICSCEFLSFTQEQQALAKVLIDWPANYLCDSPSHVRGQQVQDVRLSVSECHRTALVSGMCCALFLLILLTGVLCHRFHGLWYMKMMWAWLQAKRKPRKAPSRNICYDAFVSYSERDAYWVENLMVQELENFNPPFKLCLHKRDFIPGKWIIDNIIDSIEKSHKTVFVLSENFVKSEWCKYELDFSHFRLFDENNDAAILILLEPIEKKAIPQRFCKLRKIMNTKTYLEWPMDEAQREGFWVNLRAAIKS
Method: (§1) Induction of NF-κB activation was determined in triplicate cultures of HEK 293T cells stably transfected with human or mouse (a) TLR4/MD2/CD14 and (b) TLR2 and transiently transfected with pELAM-Luc and pRL-TK plasmids. Forty-four h post-transfection, cells were treated with (B) E. coli LPS (10 ng mL^−1), (C) Pam3CysSK4 (1 μg mL^−1), (D, E and F) 103 (0.1, 1 and 10 μg mL^−1, respectively), (G, H and I) 104 (0.1, 1 and 10 μg mL^−1, respectively) or (A) were left untreated (control). Forty-eight h post-transfection, NF-κB activation was determined by firefly luciferase activity relative to Renilla luciferase activity. n.a. indicates not analyzed.
To examine the ability of the synthetic compounds to induce activation of NF-κB, HEK 293T cells were employed that were stably transfected with various immune receptors and transiently transfected with a plasmid containing the reporter gene pELAM-Luc (NF-κB-dependent firefly luciferase reporter vector) and a plasmid containing the control gene pRL-TK (Renilla luciferase control reporter vector) (FIG. 11). […] Although compound 104 is a weak activator of mouse TLR4, it could not induce the secretion of cytokines.
The day before transfection, HEK 293T wild type cells and HEK 293T cells stably transfected with human and murine TLR4/MD2/CD14 and human and murine TLR2 were plated in 96-well tissue culture plates (16,000 cells/well). The next day, cells were transiently transfected using PolyFect Transfection Reagent (Qiagen) with expression plasmids pELAM-Luc (NF-κB-dependent firefly luciferase reporter plasmid, 50 ng/well) (Chow et al., J. Biol. Chem., 1999, 274, 10689-10692) and pRL-TK (Renilla luciferase control reporter vector, 1 ng/well; Promega) as an internal control to normalize experimental variations. […] The luciferase activity was measured using the Dual-Luciferase Reporter Assay System (Promega) according to the manufacturer's instructions and a combination luminometer/fluorometer microplate reader (BMG Labtech). […]

[3] = system: RAW cells; assay: Antagonism of E. coli LPS-induced TNF-α production in mouse macrophages (RAW cells); type: cell-based; details: mouse cell line, E. coli LPS (10 ng/mL), 5.5 h
Method: Compounds that lack proinflammatory properties may still interact with relevant receptors (TLR4/MD2/CD14), and thereby inhibit TNF-α production induced by E. coli LPS. Thus, the human monocytic cells and mouse macrophages (MM6 and RAW cells) were exposed to a combination of E. coli LPS (10 ng/mL) and a wide range of concentrations of lipid As 103 and 104 and, after an incubation time of 5.5 h, the supernatant was examined for human or mouse TNF-a.
(§2) On the day of the exposure assay differentiated MM6 cells were harvested by centrifugation and suspended (10^6 cells mL^−1) in tissue culture tubes and RAW 264.7 γNO(−) cells were plated as 2×10^5 cells/well in 96-well tissue culture plates (Nunc). […] Concentrations of human TNF-α protein in culture supernatants were determined by a solid phase sandwich ELISA. […] After the reaction was stopped by adding peroxidase stop solution (Kirkegaard & Perry Laboratories), the absorbance was measured at 405 nm using a microplate reader (BMG Labtech). Cytokine DuoSet ELISA Development Kits (R&D Systems) were used for the cytokine quantification of mouse TNF-α, mouse IL-6, mouse IP-10 and mouse IL-1β according to the manufacturer's instructions. The absorbance was measured at 450 nm with wavelength correction set to 540 nm. Concentrations of mouse IFN-β in culture supernatants were determined as follows. […]

[4] = target: T2, human TLR4/MD2/CD14 (Homo sapiens, UniProt O00206+Q9Y6Y9); assay: NF-κB activation in HEK 293T cells stably transfected with human TLR4/MD2/CD14; type: cell-based; details: 103/104 at 0.1, 1 and 10 μg mL−1; E. coli LPS 10 ng mL−1; 4 h
T2 construct: host or cells: HEK 293T
T2 sequence (O00206 24-839): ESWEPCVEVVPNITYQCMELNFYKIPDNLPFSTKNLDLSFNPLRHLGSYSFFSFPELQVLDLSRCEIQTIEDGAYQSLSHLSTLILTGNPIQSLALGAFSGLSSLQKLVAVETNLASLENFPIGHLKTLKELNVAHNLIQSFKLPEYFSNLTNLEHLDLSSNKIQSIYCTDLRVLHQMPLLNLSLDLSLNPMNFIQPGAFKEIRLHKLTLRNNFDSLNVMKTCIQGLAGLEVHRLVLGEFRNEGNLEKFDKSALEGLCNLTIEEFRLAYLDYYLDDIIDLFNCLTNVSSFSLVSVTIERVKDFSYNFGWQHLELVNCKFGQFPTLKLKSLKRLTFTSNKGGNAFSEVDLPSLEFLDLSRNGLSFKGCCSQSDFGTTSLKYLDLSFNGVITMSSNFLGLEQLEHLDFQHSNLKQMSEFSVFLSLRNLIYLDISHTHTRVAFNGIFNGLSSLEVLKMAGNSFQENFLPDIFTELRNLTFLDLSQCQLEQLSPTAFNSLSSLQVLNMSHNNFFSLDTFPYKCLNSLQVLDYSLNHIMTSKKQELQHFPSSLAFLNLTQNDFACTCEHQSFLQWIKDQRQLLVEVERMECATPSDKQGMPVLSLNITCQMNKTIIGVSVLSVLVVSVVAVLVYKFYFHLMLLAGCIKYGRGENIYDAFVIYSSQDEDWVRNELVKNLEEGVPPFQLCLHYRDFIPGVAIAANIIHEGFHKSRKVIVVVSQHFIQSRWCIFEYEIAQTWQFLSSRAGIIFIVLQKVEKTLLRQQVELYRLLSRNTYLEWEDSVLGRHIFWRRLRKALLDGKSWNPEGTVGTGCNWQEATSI
T2 sequence (Q9Y6Y9 19-160): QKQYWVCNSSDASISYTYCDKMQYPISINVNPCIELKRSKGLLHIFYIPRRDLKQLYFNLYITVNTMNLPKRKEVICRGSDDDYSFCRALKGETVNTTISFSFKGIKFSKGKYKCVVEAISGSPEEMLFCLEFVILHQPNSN
Method: as §1, with “analyzed. […]” for “analyzed.”
The day before transfection, HEK 293T wild type cells and HEK 293T cells stably transfected with human and murine TLR4/MD2/CD14 and human and murine TLR2 were plated in 96-well tissue culture plates (16,000 cells/well). […] The luciferase activity was measured using the Dual-Luciferase Reporter Assay System (Promega) according to the manufacturer's instructions and a combination luminometer/fluorometer microplate reader (BMG Labtech). […]

[5] = system: MM6 cells; assay: Antagonism of E. coli LPS-induced TNF-α production in human monocytic MM6 cells; type: cell-based; details: 5.5 h, read-out: IC50 (concentration producing 50% inhibition) of TNF production induced by E. coli LPS
Method: TNF-α concentrations were measured after preincubation of MM6 cells with increasing concentrations of 103 or 104 as indicated for 1 h at 37° C., followed by 5.5 h of incubation with E. coli LPS (1 ng mL^−1). Results are expressed as percentage of cytokine concentration of control cells, which are incubated only with E. coli LPS.
Compounds that lack proinflammatory properties may still interact with relevant receptors (TLR4/MD2/CD14), and thereby inhibit TNF-α production induced by E. coli LPS. […]
as §2

SMILES	cell viability, cellular exclusion of trypan blue [1]	NF-κB activation, human TLR2 [2]	inhibition of TNF-α production induced by E. coli LPS [3]	NF-κB activation, human TLR4/MD2/CD14 [4]	IC50 ([5]; human MM6 cells, E. coli LPS (10 ng/mL))	IC50 ([5]; Homo sapiens)
CCCCCCCCCCCCCCCC(=O)O[C@H](CCCCCCCCCCCC(C)C)CC(=O)N[C@H]1[C@H](OC[C@H]2O[C@H](OP(=O)(O)O)[C@H](NC(=O)C[C@H](O)CCCCCCCCCCCC(C)C)[C@@H](OC(=O)C[C@H](O)CCCCCCCCCCCCC)[C@@H]2O)O[C@H](CO)[C@@H](O)[C@@H]1O [Compound 103, 6-O-{2-Deoxy-2-[(R)-3-hexadecanoyloxy-15-methyl-hexadecanoylamino]-β-D-glucopyranosyl}-3-O—[(R)-3-hydroxy-hexadecanoyl]-2-deoxy-2-[(R)-3-hydroxy-15-methyl-hexadecanoylamino]-α-D-glucopyranose 1-phosphate]	did not affect cell viability	No activation of NF-κB	marginal inhibition	No activation of NF-κB	160 nM	
CCCCCCCCCCCCCCCC(=O)O[C@H](CCCCCCCCCCCC(C)C)CC(=O)N[C@H]1[C@H](OC[C@H]2O[C@H](OP(=O)(O)O)[C@H](NC(=O)C[C@H](O)CCCCCCCCCCCC(C)C)[C@@H](O)[C@@H]2O)O[C@H](CO)[C@@H](O)[C@@H]1ONC(=O)C[C@H](O)CCCCCCCCCC(C)C [Compound 104, 6-O-{2-Deoxy-2-[(R)-3-hexadecanoyloxy-15-methyl-hexadecanoylamino]-3-O—[(R)-3-hydroxy-13-methyl-tetradecanoylamino]-β-D-glucopyranosyl}-2-deoxy-2-[(R)-3-hydroxy-15-methyl-hexadecanoylamino]-α-D-glucopyranose 1-phosphate]	did not affect cell viability	No activation of NF-κB	marginal inhibition	No activation of NF-κB		3200 nM
